For assay [1], the target named is T1, CrinOCP2 (Crinalium epipsammum, UniProt K9VSN3, E26A).
T1 construct: gene Cri9333_0045; full length from E. coli C41(DE3), codon-optimized, pET28a+, His-tag cut by thrombin leaving N-terminal GSH; monomer
T1 sequence (K9VSN3 1-319 E26A): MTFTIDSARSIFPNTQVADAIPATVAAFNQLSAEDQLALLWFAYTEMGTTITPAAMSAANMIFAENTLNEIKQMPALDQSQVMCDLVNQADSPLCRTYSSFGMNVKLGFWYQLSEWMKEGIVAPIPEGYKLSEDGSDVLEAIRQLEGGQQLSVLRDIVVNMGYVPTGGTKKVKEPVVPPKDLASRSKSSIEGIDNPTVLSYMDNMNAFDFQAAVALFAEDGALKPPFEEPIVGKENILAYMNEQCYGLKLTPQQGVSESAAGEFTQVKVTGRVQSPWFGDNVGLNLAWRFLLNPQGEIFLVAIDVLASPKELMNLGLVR
Briefly: X-ray crystal structure, […] A. The conditions noted are these: bound in E. coli making echinenone; crystals pH 6.5; carotenoid site between NTD and CTD, keto group at Tyr201/Trp288. It is filed as binding.

In assay [2] the target is T2, SynOCP1 (Synechocystis sp. PCC 6803, UniProt P74102).
T2 construct: gene slr1963; full length from E. coli, tag removed, from earlier work; monomer in solution
T2 sequence (P74102 2-317): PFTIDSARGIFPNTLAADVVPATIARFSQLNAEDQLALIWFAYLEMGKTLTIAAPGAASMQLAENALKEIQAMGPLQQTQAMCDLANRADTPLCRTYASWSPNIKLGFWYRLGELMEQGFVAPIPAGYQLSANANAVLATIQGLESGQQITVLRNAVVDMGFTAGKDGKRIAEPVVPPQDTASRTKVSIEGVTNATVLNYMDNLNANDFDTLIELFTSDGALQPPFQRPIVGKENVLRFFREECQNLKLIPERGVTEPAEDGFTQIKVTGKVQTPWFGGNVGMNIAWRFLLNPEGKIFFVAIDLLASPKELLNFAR
Briefly: absorbance spectrum and photocycle of the holoprotein. It is filed as binding. To be noted: bound in E. coli making echinenone; pH 7.6, 150 mM NaCl.

Consider one compound from doi:10.1101/2023.08.20.554024v1, “Structural framework for the understanding spectroscopic and functional signatures of the cyanobacterial Orange Carotenoid Protein families” (biorxiv, 2023).

Regarding `CC1=C(/C=C/C(C)=C/C=C/C(C)=C/C=C/C=C(C)/C=C/C=C(C)/C=C/C2=C(C)C(=O)CCC2(C)C)C(C)(C)CCC1` [ECH, echinenone], the “X-ray crystal structure, 2.2 A” value in assay [1] is given as “HPLC analysis indicated that both OCP2 variants contained ECH as the predominant carotenoid”. In assay [2], the “absorbance spectrum and photocycle of the holoprotein” value is “All proteins were ECH-bound”.
